According to ChEMBL document CHEMBL3865791, “Discovery and development of natural product oridonin-inspired anticancer agents” (Eur J Med Chem, 2016):

What was measured:
[1] = Anticancer activity against human U266 cells measured after 48 hrs by trypan blue assay; format: functional, cell-based; conditions: U-266, 48 h
[2] = Antiproliferative activity against human […] cells after 24 hrs by MTT assay; format: functional, cell-based
[3] = Anticancer activity against human Kasumi-1 cells measured after 48 hrs by CCK8 assay; format: functional, cell-based; conditions: Kasumi 1, 48 h
[4] = Anticancer activity against human MT2 cells measured after 48 hrs by trypan blue assay; format: functional, cell-based; conditions: MT2, 48 h
[5] = Antiproliferative activity against human MGC803 cells after 72 hrs by MTT assay; format: functional, cell-based; conditions: MGC-803, 72 h
[6] = Oral bioavailability in Wistar rat at 10 mg/kg, ip administered as single dose measured after 36 hrs by HPLC/ESI-MS analysis; format: ADME, organism-based; conditions: in vivo, intraperitoneal
[7] = Antiproliferative activity against human […] cells after 72 hrs by MTT assay; format: functional, cell-based
[8] = Anticancer activity against human LX2 cells measured after 48 hrs by alamar blue assay; format: functional, cell-based; conditions: LX-2, 48 h
[9] = Anticancer activity against human K562/ADR cells measured after 24 hrs by MTT assay; format: functional, cell-based
[10] = Oral bioavailability in Wistar rat at 20 mg/kg administered as single dose through gavage measured after 48 hrs by HPLC/ESI-MS analysis; format: ADME, organism-based; conditions: in vivo
[11] = Antiproliferative activity against human MCF7/ADR cells measured after 48 hrs by MTT assay; format: functional, cell-based; conditions: NCI/ADR-RES
[12] = Anticancer activity against AML cells isolated from AML-ETO9a leukemia mouse measured after 48 hrs by CCK8 assay; format: functional, cell-based
[13] = Anticancer activity against human LNCAP cells measured after 48 hrs by CCK8 assay; format: functional, cell-based
[14] = Anticancer activity against human K562 cells measured after 24 hrs by MTT assay; format: functional, cell-based; conditions: K562, 24 h
[15] = Antiproliferative activity against human MCF7 cells; format: functional, cell-based
[16] = Antitumor activity against H22 cells xenografted in ICR mouse assessed as tumor growth inhibition at 20 mg/kg/day, ip administered for 4 consecutive days relative to control; format: functional; conditions: read-out: TGI
[17] = Anticancer activity against human RPMI8226 cells measured after 48 hrs by trypan blue assay; format: functional, cell-based; conditions: RPMI-8226, 48 h
[18] = Antiproliferative activity against human ER-positive MCF7 cells measured after 48 hrs by MTT assay; format: functional, cell-based; conditions: MCF7, 48 h
[19] = Anticancer activity against human MT1 cells measured after 48 hrs by trypan blue assay; format: functional, cell-based; conditions: MT1, 48 h
[20] = Anticancer activity against human Jurkat cells measured after 48 hrs by trypan blue assay; format: functional, cell-based
[21] = Anticancer activity against human PC3 cells measured after 48 hrs by CCK8 assay; format: functional, cell-based; conditions: PC-3, 48 h
[22] = Antiproliferative activity against human CaEs17 cells after 72 hrs by MTT assay; format: functional, cell-based; conditions: CaEs17, 72 h
[23] = Anticancer activity against human Hep2 cells measured after 24 hrs by MTT assay; format: functional, cell-based; conditions: HEp-2, 24 h
[24] = Antiproliferative activity against human K562 cells after 72 hrs by MTT assay; format: functional, cell-based; conditions: K562, 72 h
[25] = Anticancer activity against rat HSC-T6 cells measured after 48 hrs by alamar blue assay; format: functional, cell-based; conditions: HSC-T6, 48 h
[26] = Antiproliferative activity against human MDA-MB-231 cells; format: functional, cell-based
[27] = Anticancer activity against human SW620 cells measured after 24 hrs by MTT assay; format: functional, cell-based; conditions: SW-620, 24 h
[28] = Antitumor activity against human MGC803 cells xenografted in ICR mouse assessed as tumor growth inhibition at 40 mg/kg/day, ip for 25 consecutive days relative to control; format: functional; conditions: MGC-803, ip, read-out: TGI
[29] = Anticancer activity against human SW480 cells measured after 24 hrs by MTT assay; format: functional, cell-based; conditions: SW480, 24 h
[30] = Antiproliferative activity against human MDA-MB-231 cells measured after 48 hrs by MTT assay; format: functional, cell-based; conditions: MDA-MB-231, 48 h
[31] = Antiproliferative activity against human ER-triple negative MDA-MB-468 cells measured after 48 hrs by MTT assay; format: functional, cell-based; conditions: MDA-MB-468, 48 h

C=C1C(=O)[C@]23[C@H](O)[C@H]1CC[C@H]2[C@@]12CO[C@]3(O)[C@@H](O)[C@@H]1C(C)(C)CC[C@@H]2O [ORIDONIN]
EC50 [1]: 1200 to 2700 nM | EC50 [2]: 29.8 µM | EC50 [3]: 1330 nM | EC50 [4]: 1200 to 2700 nM | EC50 [5]: 5.69 µM | bioavailability [6]: 12.6% | EC50 [7]: 7.48 µM | EC50 [8]: 7 µM | EC50 [9]: < 40 µM | bioavailability [10]: 4.3% | EC50 [11]: 34.8 µM | EC50 [12]: 2500 nM | EC50 [13]: 25 µM | EC50 [14]: 14.6 µM | EC50 [15]: 6.6 µM | inhibition in vivo at 20 mg/kg/day [16]: 42.7% | EC50 [17]: 1200 to 2700 nM | EC50 [18]: 4.4 µM | EC50 [19]: 1200 to 2700 nM | EC50 [20]: 1200 to 2700 nM | EC50 [21]: 25 µM | EC50 [22]: 11 µM | EC50 [23]: 37.1 µM | EC50 [24]: 4.76 µM | EC50 [25]: 7 µM | EC50 [26]: 29.4 µM | EC50 [27]: 20.8 to 37 µM | inhibition in vivo at 40 mg/kg/day [28]: 37.3% | EC50 [29]: 20.8 to 37 µM | EC50 [30]: 28 to 29.4 µM | EC50 [31]: 5.3 µM
